Reference: PMC6472001, “Phenolic Compounds from Humulus lupulus as Natural Antimicrobial Products: New Weapons in the Fight against Methicillin Resistant Staphylococcus aureus, Leishmania mexicana and Trypanosoma brucei Strains” (Molecules, 2019)
Like-named read-outs stand apart in the source and are kept apart here.

Tests used:
[1] = test system: J774 cells (monocyte macrophage); test: Cytotoxicity / antiproliferative effect; assay type: cell-based, mouse
Protocol: (§1) Several human cell lines were used for the cytotoxic bioassays: non-cancer lung fibroblasts (WI-38), hepatocellular carcinoma (Hep-G2), osteosarcoma (MG-63) and the mouse monocyte macrophage J774. Cells were seeded into wells of a 96-well microplate in a Gibco™ Dulbecco’s modified eagles medium (DMEM), except for MG-63 which were cultivated in a minimum essential medium (MEM) (ThermoFisher Scientific, Illkirch-Graffenstaden, France). Both media were enriched with 10% FBS (ThermoFisher Scientific, France) and some antibiotics (mixture penicillin/streptomycin 100 UI/mL, Sigma Aldrich). After one or two days at 37 °C (5% of CO2), wells were emptied by suction. Cells were then treated with hops compounds (xanthohumol, desmethylxanthohumol, humulone, lupulone) in DMSO at 0.2% in the culture medium, to obtain a final volume of 100 µL in wells (negative control: 0.2% DMSO). Camptothecin was used as a positive control. After 48 to 72 h exposure, culture medium was replaced by 10% of Alamar blue or 3-(4,5-dimethylthiazol-2-yl)-2,5-diphenyltetrazolium bromide (MTT) in the medium (ThermoFisher Scientific®, Illkirch, France) and plates were incubated the time necessary to the reaction. Results were measured respectively by fluorescence (excitation 530 nm and emission 590 nm) or by optical density at 550 nm. The IC50 of each product was determined using GraphPad Prism (version 5.01).

[2] = test system: WI-38 cells (non-cancer lung fibroblasts); test: Cytotoxicity / antiproliferative effect; assay type: cell-based, human
Protocol: as §1

[3] = test system: Hep-G2 cells (hepatocellular carcinoma); test: Cytotoxicity / antiproliferative effect; assay type: cell-based, human
Protocol: as §1

[4] = test system: S. aureus T28.1; test: Post-antibiotic effect (PAE); assay type: cell-based, Staphylococcus aureus; details: for Maximum Growth Retardation: 2 h exposure
Protocol: This method allows quantifying the delayed regrowth of a bacterial population following exposure to an active compound [76]. Stock solutions of xanthohumol, desmethylxanthohumol and lupulone were prepared in DMSO 20 times more concentrated than the desired final concentrations (MIC/4 to 4 × MIC). A 2 h pre-treatment with purified prenylated compounds was performed using 8.5 mL of BHI medium, 0.5 mL of purified product in DMSO and 1 mL of a bacterial suspension at 10^5 CFU/mL, incubated at 37 °C. […] The hop compound was then inactivated by a 1000-fold dilution. After inactivation, a growth curve was performed with counts at 30 min and every 2 h. The growth lag was quantified by comparison with the control, using the following formula: PAE=T−C
T is the time needed for the bacterial population to grow by 1 log(CFU/mL) at the given concentration, C is the corresponding time for the control (Figure 5)

[5] = test system: S. aureus T28.1 biofilm; test: Anti-biofilm: destruction of preformed biofilm on artificial surface; assay type: cell-based, Staphylococcus aureus
Protocol: These experiments were inspired and adapted from Liu et al.. They were performed using a 96-well microplate with a flat bottom.
The effect was also evaluated after the biofilm formation in order to evaluate if the hop phenolic compounds are able to destroy it. A first culture of 24 h at 37 °C with 190 µL of BHI medium and 10 µL of a 10^5 CFU/mL bacterial suspension allowed producing the biofilm. Wells were voided and washed with PBS. The biofilm was then treated with xanthohumol, desmethylxanthohumol or lupulone diluted at 5% in the BHI medium to obtain a final volume of 200 µL. Plates were incubated for 24 h at 37 °C, then voided and colored with crystal violet as above.

[6] = test system: S. aureus T28.1 (MRSA); test: Broth microdilution MIC; assay type: cell-based, Staphylococcus aureus
Protocol: The protocol employed was inspired by Abedini et al. with some modifications. Products were solubilized in DMSO and serially diluted two-fold in MH medium. A bacterial suspension at 10^5 CFU/mL was added to obtain a final volume of 200 µL. Final phenolic product concentrations in wells ranged from 625 to 2.4 µg/mL (exception for lupulone for which dilutions were continued until 0.3 µg/mL). […] Plates were incubated overnight with stirring (60 rpm) at 37 °C.
For the following experiments, the MRSA strain T28.1, isolated from a pathological sample of osteitis, was used. It was previously characterized by DNA biochips, which allowed highlighting some β-lactamases and the SCC-mec genes confirming the methicillin resistance. Moreover, genes for enzymes and proteins involved in the capsule biosynthesis (capH5, capJ5 and capK5) and several intracellular adhesion proteins implicated in biofilm formation (icaA, icaC and icaD) were present.

[7] = test system: S. aureus T28.1; test: Kill curves; assay type: cell-based, Staphylococcus aureus
Protocol: This experiment allowed following in time the effect of the product on a growing bacterial population, highlighting the bactericidal or bacteriostatic effect. Stock solutions of xanthohumol, desmethylxanthohumol and lupulone were prepared in DMSO 20 times more concentrated than the desired final concentrations (MIC/4 to 4xMIC). An aliquot of 0.5 mL of purified product in DMSO was added to 8.5 mL of brain heart infusion (BHI) medium (Oxoid, UK). 1 mL of bacterial suspension at 10^5 CFU/mL was then introduced to the culture tube. A 5% DMSO control served as a negative control and was performed at each test. Culture tubes were incubated at 37 °C for 24 h. Counts were made every 2 h until 8 h and at 24 h by plating aliquots of serial tenfold dilutions on MHA. The determined bacterial concentrations were then converted into log(CFU/mL) and were expressed as a function of time. The detection threshold of this method was 10 CFU/mL and 1 log(CFU/mL) on graphics.

[8] = test system: Trypanosoma brucei brucei (Tbb); test: Antiparasitic activity, broth microdilution; assay type: cell-based
Protocol: (§2) Tbb were cultivated in HMI9 medium containing 10% heat-inactivated foetal bovine serum (FBS) (Sigma-Aldrich), […] L-cysteine and […] beta-mercaptoethanol at 37 °C (CO2 5%). Lmm (MHOM/BZ/84/BEL46) were cultivated in SDM-79 medium (Gibco) supplemented with 15% heat-inactivated FBS (Sigma-Aldrich) and 5 mg/L hemin at 28 °C (CO2 5%). Antiparasitic bioassays were performed as described by Bero et al.. Suramin (SUR) and pentamidine (PEN) were used as positive controls respectively. The hops compounds (xanthohumol, desmethylxanthohumol, humulone, lupulone) concentration that inhibits 50% of the cell viability (IC50) was determined using GraphPad Prism, version 5.01 (GraphPad Software, San Diego, CA, USA).

[9] = test system: Leishmania mexicana mexicana (Lmm); test: Antiparasitic activity, broth microdilution; assay type: cell-based
Protocol: as §2

[10] = Mus musculus, read-out: IC50 ± SD
[11] = Mus musculus, value in parentheses, read-out: IC50 (converted)
[12] = Homo sapiens, read-out: IC50 ± SD
[13] = Homo sapiens, value in parentheses, read-out: IC50 (converted)
[14] = Homo sapiens, HepG2, read-out: IC50 ± SD
[15] = Homo sapiens, HepG2, value in parentheses, read-out: IC50 (converted)
[16] = Staphylococcus aureus, S. aureus T28.1 (MRSA), read-out: MIC
[17] = Staphylococcus aureus, S. aureus T28.1 (MRSA), value in parentheses, read-out: MIC
[18] = Trypanosoma brucei, read-out: IC50 (converted)
[19] = Trypanosoma brucei, value in parentheses, read-out: IC50 (converted)
[20] = Leishmania mexicana, read-out: IC50 (converted)
[21] = Leishmania mexicana, value in parentheses, read-out: IC50 (converted)
[22] = value in parentheses, read-out: IC50 (converted)

Q: Which results are given for `CC(C)=CCc1c(O)cc(O)c(C(=O)/C=C/c2ccc(O)cc2)c1O` [DMX, desmethylxanthohumol]?
A: IC50 [1, 10]: 9.7 ± 1 µg/mL; IC50 [1, 11]: 28.5 µM; IC50 [2, 12]: 60.7 ± 2.5 µg/mL; IC50 [2, 13]: 178 µM; IC50 [3, 14]: 22.4 ± 2.9 µg/mL; IC50 [3, 15]: 65.9 µM; Maximum Growth Retardation ([4]; 2 × MIC): 2.29 h; Maximum Growth Retardation ([4]; 4 × MIC): 2.34 h; Maximum Growth Retardation ([4]; MIC/2): 2.10 h; Maximum Growth Retardation ([4]; MIC): 2.32 h; Biofilm destruction ([5]; MIC/4): 81%; MIC [6, 16]: 39 µg/mL; MIC [6, 17]: 115 µM; Bacterial population reached (detection threshold) ([7]; 2 × MIC, after 24 h): 1 log(CFU/mL); IC50 [8, 18]: 7.7 ± 0.6 µg/mL; IC50 [8, 19]: 22.6 µM; IC50 [9, 20]: 26.2 ± 1.8 µg/mL; IC50 [9, 21]: 77 µM

Q: How did the “IC50 ± SD” value [1] turn out when lupulone was run?
A: Its value is 1.5 ± 0.1 µg/mL.

Q: And the IC50 [1, 22]?
A: The IC50 was 3.6 µM.

Q: And the “IC50 ± SD” value [2]?
A: Its value is 1.1 ± 0.0 µg/mL.

Q: And the IC50 [2, 22]?
A: Its IC50 is 2.6 µM.

Q: What about the “IC50 ± SD” value [3] of the same compound?
A: The value was 1.2 ± 0.5 µg/mL.

Q: What about the IC50 [3, 22] of the same compound?
A: Its IC50 is 2.9 µM.

Q: What about the “Maximum Growth Retardation” value ([4]; 4 × MIC) of the same compound?
A: The value was 0.47 h.

Q: And the “Maximum Growth Retardation” value ([4]; MIC/2)?
A: Its value is 0.26 h.

Q: And the “Maximum Growth Retardation” value ([4]; MIC)?
A: The value was 0.53 h.

Q: And the “Maximum delay after inactivation” value ([4]; over all concentrations)?
A: The value was about 55 min.

Q: And the Biofilm destruction ([5]; MIC/4)?
A: The Biofilm destruction was 62.8%.

Q: What about the MIC ([6]; S. aureus T28.1 (MRSA)) of the same compound?
A: Its MIC is 1.2 µg/mL.

Q: And the MIC ([6]; S. aureus T28.1 (MRSA), value in parentheses, read-out: MIC)?
A: The MIC was 2.9 µM.

Q: What about the MIC ([6]; strain MRSA T28.1) of the same compound?
A: The MIC was 1.2 µg/mL.

Q: And the “Reduction between the control and 2 × MIC” value ([7]; 2 × MIC)?
A: The value was “about 3 log(CFU/mL)”.

Q: What about the “Kill curve effect at 4 × MIC” value ([7]; 4 × MIC) of the same compound?
A: The value was “slightly decreased the bacterial population”.

Q: And the IC50 [8]?
A: The IC50 was 0.9 ± 0.0 µg/mL.

Q: And the IC50 [8, 22]?
A: The IC50 was 2.2 µM.

Q: What about the IC50 [9] of the same compound?
A: Its IC50 is 4.7 ± 0.1 µg/mL.

Q: And the IC50 [9, 22]?
A: Its IC50 is 11.3 µM.

Q: For `COc1cc(O)c(CC=C(C)C)c(O)c1C(=O)/C=C/c1ccc(O)cc1` [XN, xanthohumol], which IC50 [1, 10] is on record?
A: Its IC50 is 3.4 ± 0.5 µg/mL.

Q: What about the IC50 [1, 11] of the same compound?
A: The IC50 was 9.6 µM.

Q: And the IC50 [2, 12]?
A: The IC50 was 6.9 ± 0.5 µg/mL.

Q: And the IC50 [2, 13]?
A: The IC50 was 19.5 µM.

Q: And the IC50 [3, 14]?
A: The IC50 was 2.5 ± 0.8 µg/mL.

Q: And the IC50 [3, 15]?
A: The IC50 was 7.1 µM.

Q: What about the “Maximum Growth Retardation” value ([4]; 2 × MIC) of the same compound?
A: Its value is 2.05 h.

Q: And the “Maximum Growth Retardation” value ([4]; 4 × MIC)?
A: The value was 3.29 h.

Q: And the “Maximum Growth Retardation” value ([4]; MIC/2)?
A: Its value is 1.34 h.

Q: And the “Maximum Growth Retardation” value ([4]; MIC)?
A: Its value is 2.23 h.

Q: What about the Biofilm destruction ([5]; at the MIC and above) of the same compound?
A: The Biofilm destruction was “non-dose-dependent activity”.

Q: And the MIC [6, 16]?
A: Its MIC is 9.8 µg/mL.

Q: And the MIC [6, 17]?
A: Its MIC is 27.7 µM.

Q: What about the “Decrease of the bacterial population” value ([7]; 2xMIC, first 4 h) of the same compound?
A: The value was “around 3 log(CFU/mL)”.

Q: What about the “Decrease of the bacterial population” value ([7]; MIC/2, first 6 h) of the same compound?
A: Its value is 0.5 log(CFU/mL).

Q: And the “Decrease of the bacterial population” value ([7]; at the MIC, during 24 h)?
A: The value was 2 log(CFU/mL).

Q: What about the IC50 [8, 18] of the same compound?
A: Its IC50 is 2.4 ± 0.2 µg/mL.

Q: What about the IC50 [8, 19] of the same compound?
A: The IC50 was 6.8 µM.

Q: And the IC50 [9, 20]?
A: The IC50 was 6.1 ± 3.1 µg/mL.

Q: What about the IC50 [9, 21] of the same compound?
A: The IC50 was 17.2 µM.
